Tests used:
Settings in all cases: human; call rule not given here
Hepatotoxicity [1] = assay: FDA HLAED, serum glutamic oxaloacetic transaminase (SGOT) increase
Hepatotoxicity [2] = assay: FDA HLAED, gamma-glutamyl transferase (GGT) increase
Hepatotoxicity [3] = assay: FDA HLAED, alkaline phosphatase increase
Hepatotoxicity [4] = assay: FDA HLAED, liver enzyme composite activity
Hepatotoxicity [5] = assay: FDA HLAED, serum glutamic pyruvic transaminase (SGPT) increase
Hepatotoxicity [6] = assay: FDA HLAED, lactate dehydrogenase (LDH) increase
For GGT Increase - Index Value in this document: reference of the scale not given here.
For LDH Increase - Index Value in this document: reference of the scale not given here.

| SMILES | SGOT Increase - Activity Score (Hepatotoxicity [1]) | SGOT Increase - Index Value (Hepatotoxicity [1]) | SGOT Increase - Number of Reports (Hepatotoxicity [1]) | GGT Increase - Activity Score (Hepatotoxicity [2]) | GGT Increase - Index Value (Hepatotoxicity [2]) | GGT Increase - Number of Reports (Hepatotoxicity [2]) | Alkaline Phosphatase Increase - Activity Score (Hepatotoxicity [3]) | Alkaline Phosphatase Increase - Index Value (Hepatotoxicity [3]) | Alkaline Phosphatase Increase - Number of Reports (Hepatotoxicity [3]) | Composite Activity - Active (Hepatotoxicity [4]) | Composite Activity - Marginal (Hepatotoxicity [4]) | Composite Activity - Score (Hepatotoxicity [4]) | SGPT Increase - Activity Score (Hepatotoxicity [5]) | SGPT Increase - Index Value (Hepatotoxicity [5]) | SGPT Increase - Number of Reports (Hepatotoxicity [5]) | LDH Increase - Activity Score (Hepatotoxicity [6]) | LDH Increase - Index Value (Hepatotoxicity [6]) | LDH Increase - Number of Reports (Hepatotoxicity [6]) | also measured |
| --- | --- | --- | --- | --- | --- | --- | --- | --- | --- | --- | --- | --- | --- | --- | --- | --- | --- | --- | --- |
| COc1c(C)c2c(c(O)c1C/C=C(\C)CCC(=O)O)C(=O)OC2 [MYCOPHENOLIC ACID] | Inactive | 3.8 | < 4 | Inactive | 3.8 | < 4 | Inactive | 5.7 | < 4 | 1 | 0 | Inactive | Active | 9.6 | >= 4 | Inactive | 1.9 | < 4 | – |
| CCCCCCC(C)(C)c1cc(O)c2c(c1)OC(C)(C)C1CCC(=O)CC21 (stereo unspecified) [NABILONE] | Inactive | 0 | < 4 | Inactive | 0 | < 4 | Inactive | 0 | < 4 | 0 | 0 | Inactive | Inactive | 0 | < 4 | Inactive | 0 | < 4 | – |
| COc1ccc2cc(CCC(C)=O)ccc2c1 [NABUMETONE] | Inactive | 0.6 | >= 4 | Inactive | 0.5 | >= 4 | Inactive | 0.8 | >= 4 | 0 | 0 | Inactive | Inactive | 0.6 | >= 4 | Inactive | 0.3 | >= 4 | – |
| CC(C)(C)NCC(O)COc1cccc2c1CC(O)C(O)C2 (stereo unspecified) [NADOLOL] | Inactive | 0.7 | >= 4 | Inactive | 0 | < 4 | Inactive | 0.3 | < 4 | 0 | 0 | Inactive | Inactive | 0.7 | >= 4 | Inactive | 0 | < 4 | – |
| CN(C/C=C/c1ccccc1)Cc1cccc2ccccc12 [NAFTIFINE] | Inactive | 0 | < 4 | Inactive | 0 | < 4 | Inactive | 0 | < 4 | – | – | – | Inactive | 0 | < 4 | Inactive | 0 | < 4 | Composite Activity - Active (Hepatotoxicity [4]; Liver): 0; Composite Activity - Marginal (Hepatotoxicity [4]; Liver): 0; Composite Activity - Score (Hepatotoxicity [4]; Liver): Inactive |
| Oc1ccc2c3c1O[C@H]1[C@@H](O)CC[C@@]4(O)[C@@H](C2)N(CC2CCC2)CC[C@]314 [NALBUPHINE] | Inactive | 0 | < 4 | Inactive | 0 | < 4 | Inactive | 0 | < 4 | 0 | 0 | Inactive | Inactive | 0 | < 4 | Inactive | 0 | < 4 | – |
| O=C1CC[C@@]2(O)[C@H]3Cc4ccc(O)c5c4[C@@]2(CCN3CC2CC2)[C@H]1O5 [NALTREXONE] | Inactive | 0 | < 4 | Inactive | 0 | < 4 | Inactive | 0 | < 4 | 0 | 0 | Inactive | Inactive | 23.3 | < 4 | Inactive | 0 | < 4 | – |
| COc1ccc2cc([C@H](C)C(=O)O)ccc2c1 [NAPROXEN] | Inactive | 0.1 | >= 4 | Inactive | 0.1 | < 4 | Inactive | 0.1 | < 4 | – | – | – | Inactive | 0 | < 4 | Inactive | 0 | < 4 | Composite Activity - Active (Hepatotoxicity [4]; Liver): 0; Composite Activity - Marginal (Hepatotoxicity [4]; Liver): 0; Composite Activity - Score (Hepatotoxicity [4]; Liver): Inactive |
| CCCc1c2oc(C(=O)O)cc(=O)c2cc2c(=O)cc(C(=O)O)n(CC)c12 [NEDOCROMIL] | Inactive | 0.5 | < 4 | Inactive | 0 | < 4 | Inactive | 0 | < 4 | 0 | 0 | Inactive | Inactive | 0.3 | < 4 | Inactive | 0.3 | < 4 | – |
| CCc1nn(CCCN2CCN(c3cccc(Cl)c3)CC2)c(=O)n1CCOc1ccccc1 [NEFAZODONE] | Marginally Active | 3.6 | >= 4 | Inactive | 1.1 | >= 4 | Inactive | 1.1 | >= 4 | 0 | 2 | Inactive | Marginally Active | 3.3 | >= 4 | Inactive | 1.1 | >= 4 | – |
| CCN[C@@H]1C[C@H](N)[C@@H](O[C@H]2OC(CN)=CC[C@H]2N)[C@H](O)[C@H]1O[C@H]1OC[C@](C)(O)[C@H](NC)[C@H]1O [NETILMICIN] | Inactive | 0 | < 4 | Inactive | 0 | < 4 | Inactive | 0 | < 4 | 0 | 0 | Inactive | Inactive | 0 | < 4 | Inactive | 0 | < 4 | – |
| Cc1ccnc2c1NC(=O)c1cccnc1N2C1CC1 [NEVIRAPINE] | Active | 68.7 | >= 4 | Active | 41.2 | >= 4 | Active | 27.5 | >= 4 | 5 | 0 | Active | Active | 55 | >= 4 | Active | 34.4 | >= 4 | – |

Source: ChEMBL document CHEMBL1697781, “Assessment of the health effects of chemicals in humans: II. Construction of an adverse effects database for QSAR modeling” (Curr Drug Discov Technol, 2004)
